In patent US10744152B2, “Application of Asarum total polysaccharides in preparation of medicine for treating cough” (THE FIRST AFFILIATED HOSPITAL OF GUANGZHOU MEDICAL …, priority 2014, dated 2020):
Marks after values point to notes of the source that are not given here.

Assays:
[1] = system: guinea pig models with cough hypersensitivity; test: Airway inflammation indicators in BALF (TCC, classification of cells) of guinea pig models with cough hypersensitivity; assay type: in vivo; conditions: 30 mg/kg, 14 days
Excerpt: Experimental materials are same as those of the Embodiment 5. […] Schmidt var.

[2] = system: guinea pig models with cough hypersensitivity; test: Antitussive effect on guinea pig models with cough hypersensitivity (CS-exposure 14 days, citric acid excitation); assay type: in vivo; conditions: for Antitussive rate: vs model group
Experimental: (1) Calculating the cough frequency within 6 min after citric acid excitation, and calculating the antitussive rate of each administration group by using the formula “the antitussive rate=(Nmodel group−Nadministration group)/Nmodel group×100%”.
(2) Calculating the cough latent period of each administration group within 6 min after citric acid excitation;
Experimental materials are same as those of the Embodiment 5. […] Schmidt var. Mandshuricum (Maxim.) Kitag. into pieces, adding 20 times amount of distilled water to soak the cut roots overnight, extracting decoction from boiling water for 6 hours, filtering the decoction with four layers of gauze, repeatedly decocting filter residues twice, 6 hours each time, combining the filtrates, concentrating the filtrate to 1000 ml, precipitating with 80% of ethanol, centrifuging (4500 r/m, 10 min), and conventionally drying the precipitates (washing the precipitates three times with each of ethanol and ether) to obtain coarse Asarum polysaccharides (Li Jingjing, Study on the Separation, Purification and Immunological Activity of Polysaccharide from Asarum heterotropoides, Journal of Changchun Normal University (Natural Science), 2008, 27(1): 54-58)), a group of the Asarum total polysaccharides extract in the Embodiment 1 (800 mg/kg), and a group of the Asarum total polysaccharide extract in the Embodiment 2 (800 mg/kg). The rest of experimental methods are same as the Embodiment 5.

[3] = system: guinea pig models with acute cough; test: Acute antitussive effect on cough of guinea pigs induced by citric acid

SMILES: COc1ccc2c3c1O[C@H]1[C@@H](O)C=C[C@H]4[C@@H](C2)N(C)CC[C@@]341 [Codeine phosphate, codeine phosphate]
- Eos % ([1]; BALF): 3.6 +/− 3.1%
- Lym % ([1]; BALF): 5.3 +/− 1.1%
- Mac % ([1]; macrophages in BALF): 39.4 +/− 7.1%
- Neu % ([1]; neutrophils in BALF): 51.8 +/− 8.4%
- Cough frequency ([2]; 30 mg/kg intragastric once a day 14 days, CS-exposure 14 days, within 6 min after citric acid): 5.7 +/− 1.9*** times
- Cough latent period ([2]; 30 mg/kg, 14 days, CS-exposure, after citric acid): 199.7 +/− 37.7*** seconds
- Antitussive rate ([2]; 30 mg/kg, 14 days): 81.1%
- Cough frequency ([2]; Embodiment 8 comparison of different extracts, 30 mg/kg, 14 days): 5.7 +/− 1.9*** times
- Antitussive rate ([2]; Embodiment 8 comparison, 30 mg/kg, 14 days): 81.1%
- Cough frequency ([3]; 30 mg/kg once a day for 3 days, within 6 min after citric acid nebulization): 8.5 +/− 2.6*** times
- Cough latent period ([3]; 30 mg/kg, 3 days, after citric acid nebulization): 95.3 ± 18.3 s
- Antitussive rate ([3]; 30 mg/kg, 3 days, vs blank control group): 70.5%
